Reference: the NIST ThermoML archive (doi:10.1021/je900478c)
± gives the expanded uncertainty stated by the source.

What was measured:
[1] = 101 kPa, Liquid; for viscosity: Capillary tube (Ostwald / Ubbelohde) method
[2] = refractive index (Na D-line) (dimensionless); conditions: 101.33 kPa, Liquid, Standard Abbe refractometry
[3] = xn = mol fraction of the nth substance listed; conditions: 101 kPa, Liquid, x2 = 0; for viscosity: Capillary tube (Ostwald / Ubbelohde) method
[4] = refractive index (Na D-line) (dimensionless); xn = mol fraction of the nth substance listed; conditions: 101 kPa, Liquid, Standard Abbe refractometry, x2 = 0
[5] = 283.15 K, Vibrating tube method
[6] = 323.15 K, Vibrating tube method

Row | Compound | mass density ([1]; 283.15 K) [kg/m3] | mass density ([1]; 293.15 K) [kg/m3] | mass density ([1]; 303.15 K) [kg/m3] | mass density ([1]; 313.15 K) [kg/m3] | viscosity ([1]; 283.15 K) [mPa·s] | viscosity ([1]; 293.15 K) [mPa·s] | viscosity ([1]; 303.15 K) [mPa·s] | viscosity ([1]; 313.15 K) [mPa·s] | viscosity ([1]; 323.15 K) [mPa·s] | refractive index ([2]; 283.15 K) | refractive index ([2]; 293.15 K) | refractive index ([2]; 303.15 K) | refractive index ([2]; 313.15 K) | refractive index ([2]; 323.15 K) | mass density ([3]; 283.15 K) [kg/m3] | refractive index ([4]; 283.15 K) | refractive index ([4]; 293.15 K) | refractive index ([4]; 303.15 K) | refractive index ([4]; 313.15 K) | refractive index ([4]; 323.15 K) | further results
1 | CCCCCCOCCOCCO [2-(2-hexyloxyethoxy)ethanol] | 942.09 ± 0.26 | 934.06 ± 0.27 | 926.08 ± 0.28 | 918.17 ± 0.29 |  |  |  |  |  |  |  |  |  |  |  |  |  |  |  |  | mass density ([1]; 288.15 K): 938.05 ± 0.26 kg/m3
2 | CCCCOCCO [2-butoxyethan-1-ol] | 909.49 ± 0.43 | 901.18 ± 0.44 | 892.68 ± 0.45 | 884.21 ± 0.46 | 4.46 ± 0.049 | 3.288 ± 0.037 | 2.499 ± 0.028 | 1.946 ± 0.021 | 1.543 ± 0.017 | 1.4226 ± 0.00054 | 1.4196 ± 0.00056 | 1.4157 ± 0.00061 | 1.41139 ± 0.00062 | 1.40701 ± 0.00063 |  |  |  |  |  |  | mass density ([1]; 323.15 K): 875.6 ± 0.47 kg/m3
3 | CCCCOCCOCCO [3,6-dioxa-1-decanol] |  |  |  |  | 8.301 ± 0.092 | 5.86 ± 0.069 | 4.323 ± 0.049 | 3.295 ± 0.036 | 2.58 ± 0.029 | 1.4347 ± 0.00057 | 1.4312 ± 0.00056 | 1.42805 ± 0.00057 | 1.424 ± 0.00062 | 1.4194 ± 0.00064 |  |  |  |  |  |  | mass density [1, 5]: 962.57 ± 0.23 kg/m3; mass density ([1]; 293.15 K, Vibrating tube method): 954.16 ± 0.23 kg/m3; mass density ([1]; 303.15 K, Vibrating tube method): 945.74 ± 0.23 kg/m3; mass density ([1]; 313.15 K, Vibrating tube method): 937.35 ± 0.23 kg/m3; mass density [1, 6]: 928.85 ± 0.23 kg/m3
4 | O [water] + CCCCCCOCCOCCO |  |  |  |  |  |  |  |  |  |  |  |  |  |  | 999.7 ± 0.12 |  |  |  |  |  | 
5 | O [water] + CCCCOCCO |  |  |  |  |  |  |  |  |  |  |  |  |  |  | 999.7 ± 0.12 | 1.33369 ± 0.00041 | 1.33299 ± 0.00041 | 1.33194 ± 0.00042 | 1.33061 ± 0.00043 | 1.32904 ± 0.00043 | viscosity ([3]; 283.15 K): 1.309 ± 0.013 mPa·s; viscosity ([3]; 293.15 K): 1.003 ± 0.01 mPa·s; viscosity ([3]; 303.15 K): 0.7983 ± 0.0078 mPa·s; viscosity ([3]; 313.15 K): 0.6543 ± 0.0064 mPa·s; viscosity ([3]; 323.15 K): 0.5492 ± 0.0054 mPa·s; mass density ([3]; 323.15 K): 988.04 ± 0.14 kg/m3
6 | O [water] + CCCCOCCOCCO |  |  |  |  |  |  |  |  |  |  |  |  |  |  |  | 1.33369 ± 0.00041 | 1.33299 ± 0.00041 | 1.33194 ± 0.00042 | 1.33061 ± 0.00043 | 1.32904 ± 0.00043 | viscosity ([3]; 283.15 K): 1.309 ± 0.013 mPa·s; mass density [3, 5]: 999.7 ± 0.05 kg/m3; viscosity ([3]; 293.15 K): 1.003 ± 0.01 mPa·s; viscosity ([3]; 303.15 K): 0.7983 ± 0.0078 mPa·s; viscosity ([3]; 313.15 K): 0.6543 ± 0.0064 mPa·s; viscosity ([3]; 323.15 K): 0.5492 ± 0.0054 mPa·s; mass density [3, 6]: 988.04 ± 0.05 kg/m3
